Reference: article PMC5642474, “Pre-clinical pharmacology of AZD3965, a selective inhibitor of MCT1: DLBCL, NHL and Burkitt’s lymphoma anti-tumor activity” (Oncotarget, 2017)

Columns and labels:
MCT1 = target: T1, MCT1 (Homo sapiens, UniProt P53985); assay: SPA competition binding, […]-MCT1 ligand displacement on Jurkat cell membranes; also Ki […] on recombinant human MCT1 yeast membranes; conditions: read-out: AZD3965
T1 construct: gene SLC16A1
T1 sequence (P53985 1-500): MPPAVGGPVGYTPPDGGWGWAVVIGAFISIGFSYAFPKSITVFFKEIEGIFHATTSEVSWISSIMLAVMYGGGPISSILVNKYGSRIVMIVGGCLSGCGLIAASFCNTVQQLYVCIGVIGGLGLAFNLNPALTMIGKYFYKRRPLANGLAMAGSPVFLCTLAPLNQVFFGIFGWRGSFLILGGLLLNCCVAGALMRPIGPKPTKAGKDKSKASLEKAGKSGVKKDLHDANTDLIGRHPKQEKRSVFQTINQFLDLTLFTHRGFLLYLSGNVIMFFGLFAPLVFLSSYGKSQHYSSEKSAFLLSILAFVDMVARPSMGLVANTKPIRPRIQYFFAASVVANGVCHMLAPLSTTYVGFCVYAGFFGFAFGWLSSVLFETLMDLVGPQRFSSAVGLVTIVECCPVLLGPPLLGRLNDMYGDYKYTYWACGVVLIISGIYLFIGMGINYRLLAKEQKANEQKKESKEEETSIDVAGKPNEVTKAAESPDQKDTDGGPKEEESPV

MCT2 = target: T2, MCT2 (Homo sapiens, UniProt O60669); conditions: read-out: AZD3965
T2 construct: gene SLC16A7
T2 sequence (O60669 whole entry): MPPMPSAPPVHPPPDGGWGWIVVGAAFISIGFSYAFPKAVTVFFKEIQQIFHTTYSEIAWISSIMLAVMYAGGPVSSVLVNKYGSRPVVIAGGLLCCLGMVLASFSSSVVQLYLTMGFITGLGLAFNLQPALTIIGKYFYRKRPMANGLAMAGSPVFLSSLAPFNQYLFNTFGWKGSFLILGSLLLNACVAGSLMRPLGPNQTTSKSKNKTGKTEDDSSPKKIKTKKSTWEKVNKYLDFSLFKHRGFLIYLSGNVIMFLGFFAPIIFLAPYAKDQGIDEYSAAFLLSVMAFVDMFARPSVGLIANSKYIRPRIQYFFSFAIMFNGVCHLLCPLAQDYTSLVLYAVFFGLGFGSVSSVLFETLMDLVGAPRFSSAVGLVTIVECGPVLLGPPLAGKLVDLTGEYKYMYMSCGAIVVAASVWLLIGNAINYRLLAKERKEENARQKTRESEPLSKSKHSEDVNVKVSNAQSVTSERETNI

## Cc1[nH]nc(C(F)(F)F)c1Cc1sc2c(c1C(=O)N1C[C@](C)(O)CO1)c(=O)n(C)c(=O)n2C(C)C [AZD3965]
MCT1
  Ki: 1.6 nM
MCT2
  Ki: 20 nM
